# Source: ChEMBL document CHEMBL1201861, “Genomics of Drug Sensitity in Cancer screening data, Wellcome Trust Sanger Institute”
# How the values were obtained:
# Experiment in all cases: cells
# [1] = test system: DSH1; type: functional, cell-based, Homo sapiens; conditions: Homo sapiens, DSH1;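 further: growth inhibition of human DSH1 cells, measured with a cell viability readout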
# Description: SANGER: Inhibition of human DSH1 cell growth in a cell viability assay.
# [2] = test system: 769-P; type: functional, cell-based, Homo sapiens; conditions: Homo sapiens, 769-P
# Description: SANGER: Inhibition of human 769-P cell growth in a cell viability assay.
# [3] = test system: IST-MEL1; type: functional, cell-based, Homo sapiens; conditions: Homo sapiens, IST-MEL1;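 further: growth inhibition of the cell line, read out with a cell viability assay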
# Description: SANGER: Inhibition of human IST-MEL1 cell growth in a cell viability assay.
# [4] = test system: SW1990; type: functional, cell-based, Homo sapiens; conditions: Homo sapiens, SW1990;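 further: cell growth inhibition determined with a viability assay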
# Description: SANGER: Inhibition of human SW1990 cell growth in a cell viability assay.
# [5] = test system: HuP-T3; type: functional, cell-based, Homo sapiens; conditions: Homo sapiens, HuP-T3;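 further: HuP-T3 cell growth inhibition, read out with a cell viability assay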
# Description: SANGER: Inhibition of human HuP-T3 cell growth in a cell viability assay.
# [6] = test system: EW-16; type: functional, cell-based, Homo sapiens; conditions: Homo sapiens, EW-16;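 further: growth inhibition of human EW-16 cells, read out as cell viability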
# Description: SANGER: Inhibition of human EW-16 cell growth in a cell viability assay.
# [7] = test system: SNU1; type: functional, cell-based; conditions: Homo sapiens;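 further: growth inhibition of human NCI-SNU-1 cells, measured with a cell viability assay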
# Description: SANGER: Inhibition of human NCI-SNU-1 cell growth in a cell viability assay.
# [8] = test system: RPMI-8866; type: functional, cell-based; conditions: Homo sapiens
# Description: SANGER: Inhibition of human RPMI-8866 cell growth in a cell viability assay.
# [9] = test system: Panc1005; type: functional, cell-based, Homo sapiens; conditions: Homo sapiens, Panc1005;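 further: growth inhibition of human PANC-10-05 cells, measured by a cell viability assay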
# Description: SANGER: Inhibition of human PANC-10-05 cell growth in a cell viability assay.
# [10] = test system: NCI-H1092; type: functional, cell-based; conditions: Homo sapiens;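 further: cell growth inhibition measured with a cell viability assay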
# Description: SANGER: Inhibition of human NCI-H1092 cell growth in a cell viability assay.
# [11] = test system: A 172; type: functional, cell-based, Homo sapiens; conditions: Homo sapiens, A 172;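 further: growth inhibition of A172 cells, measured with a cell viability readout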
# Description: SANGER: Inhibition of human A172 cell growth in a cell viability assay.
# [12] = test system: UACC-62; type: functional, cell-based, Homo sapiens; conditions: Homo sapiens, UACC-62;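 further: growth inhibition of human UACC-62 cells, read out by a cell viability assay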
# Description: SANGER: Inhibition of human UACC-62 cell growth in a cell viability assay.
# [13] = test system: ES1; type: functional, cell-based, Homo sapiens; conditions: Homo sapiens, ES1;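 further: growth inhibition of ES1 cells, read out with a cell viability assay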
# Description: SANGER: Inhibition of human ES1 cell growth in a cell viability assay.
# [14] = test system: RO82-W-1; type: functional, cell-based, Homo sapiens; conditions: Homo sapiens, RO82-W-1;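 further: growth inhibition of human RO82-W-1 cells, measured with a cell viability assay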
# Description: SANGER: Inhibition of human RO82-W-1 cell growth in a cell viability assay.
# [15] = test system: HT-144; type: functional, cell-based, Homo sapiens; conditions: Homo sapiens, HT-144
# Description: SANGER: Inhibition of human HT-144 cell growth in a cell viability assay.
# [16] = test system: KYSE-520 cell line; type: functional, cell-based, Homo sapiens; conditions: Homo sapiens, KYSE-520;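 further: growth inhibition of human KYSE-520 cells, read out with a viability assay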
# Description: SANGER: Inhibition of human KYSE-520 cell growth in a cell viability assay.
# [17] = test system: OE33; type: functional, cell-based, Homo sapiens; conditions: Homo sapiens, OE33;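 further: growth inhibition of human OE33 cells, measured by a cell viability assay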
# Description: SANGER: Inhibition of human OE33 cell growth in a cell viability assay.
# [18] = test system: SNB-75; type: functional, cell-based, Homo sapiens; conditions: Homo sapiens, SNB-75;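 further: cell viability assay measuring growth inhibition of human SNB-75 cells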
# Description: SANGER: Inhibition of human SNB75 cell growth in a cell viability assay.
# [19] = test system: J-RT3-T3-5; type: functional, cell-based; conditions: Homo sapiens;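 further: cell viability assay measuring growth inhibition of human J-RT3-T3-5 cells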
# Description: SANGER: Inhibition of human J-RT3-T3-5 cell growth in a cell viability assay.
# [20] = test system: BCPAP; type: functional, cell-based, Homo sapiens; conditions: Homo sapiens, BCPAP;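 further: growth inhibition of BCPAP cells, read out in a cell viability assay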
# Description: SANGER: Inhibition of human BCPAP cell growth in a cell viability assay.
# [21] = test system: ABC-1; type: functional, cell-based, Homo sapiens; conditions: Homo sapiens, ABC-1;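 further: growth inhibition of human ABC-1 cells, read out by a cell viability assay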
# Description: SANGER: Inhibition of human ABC-1 cell growth in a cell viability assay.
# [22] = test system: T98G; type: functional, cell-based, Homo sapiens; conditions: Homo sapiens, T98G;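 further: growth inhibition of T98G cells, read out by a cell viability assay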
# Description: SANGER: Inhibition of human T98G cell growth in a cell viability assay.
# [23] = test system: HL-60; type: functional, cell-based; conditions: Homo sapiens;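 further: growth inhibition of human HL-60 cells, read out with a cell viability assay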
# Description: SANGER: Inhibition of human HL-60 cell growth in a cell viability assay.
# [24] = test system: NCI-H1755; type: functional, cell-based, Homo sapiens; conditions: Homo sapiens, NCI-H1755;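 further: cell viability readout used to measure growth inhibition of NCI-H1755 cells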
# Description: SANGER: Inhibition of human NCI-H1755 cell growth in a cell viability assay.
# [25] = test system: Daoy; type: functional, cell-based, Homo sapiens; conditions: Homo sapiens, Daoy;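 further: daoy cell growth inhibition, read out as cell viability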
# Description: SANGER: Inhibition of human Daoy cell growth in a cell viability assay.
# [26] = test system: 639-V; type: functional, cell-based, Homo sapiens; conditions: Homo sapiens, 639-V;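 further: growth inhibition of 639-V cells, read out with a cell viability assay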
# Description: SANGER: Inhibition of human 639-V cell growth in a cell viability assay.
# [27] = test system: HCC1937; type: functional, cell-based, Homo sapiens; conditions: Homo sapiens, HCC1937;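 further: growth inhibition measured with a cell viability read-out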
# Description: SANGER: Inhibition of human HCC1937 cell growth in a cell viability assay.
# [28] = test system: SK-MEL-24; type: functional, cell-based; conditions: Homo sapiens;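 further: growth inhibition read out by a cell viability assay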
# Description: SANGER: Inhibition of human SK-MEL-24 cell growth in a cell viability assay.
# [29] = test system: LN-405; type: functional, cell-based, Homo sapiens; conditions: Homo sapiens, LN-405
# Description: SANGER: Inhibition of human LN-405 cell growth in a cell viability assay.
# [30] = test system: RH-1; type: functional, cell-based, Homo sapiens; conditions: Homo sapiens, RH-1;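 further: growth inhibition of human RH-1 cells, read out with a cell viability assay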
# Description: SANGER: Inhibition of human RH-1 cell growth in a cell viability assay.
# [31] = test system: UACC-257; type: functional, cell-based, Homo sapiens; conditions: Homo sapiens, UACC-257
# Description: SANGER: Inhibition of human UACC-257 cell growth in a cell viability assay.
# [32] = test system: CAS-1; type: functional, cell-based, Homo sapiens; conditions: Homo sapiens, CAS-1;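 further: growth inhibition of CAS-1 cells, measured with a cell viability assay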
# Description: SANGER: Inhibition of human CAS-1 cell growth in a cell viability assay.
# [33] = test system: MHH-ES-1; type: functional, cell-based, Homo sapiens; conditions: Homo sapiens, MHH-ES-1;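 further: cell growth inhibition measured by a cell viability assay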
# Description: SANGER: Inhibition of human MHH-ES-1 cell growth in a cell viability assay.
# [34] = test system: S-117; type: functional, cell-based, Homo sapiens; conditions: Homo sapiens, S-117
# Description: SANGER: Inhibition of human S-117 cell growth in a cell viability assay.
# [35] = test system: JVM-2; type: functional, cell-based; conditions: Homo sapiens;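 further: growth inhibition of JVM-2 cells determined by a cell viability assay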
# Description: SANGER: Inhibition of human JVM-2 cell growth in a cell viability assay.
# [36] = test system: D-263MG; type: functional, cell-based, Homo sapiens; conditions: Homo sapiens, D-263MG
# Description: SANGER: Inhibition of human D-263MG cell growth in a cell viability assay.
# [37] = test system: NCI-H727; type: functional, cell-based, Homo sapiens; conditions: Homo sapiens, NCI-H727;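 further: growth inhibition of human NCI-H727 cells, read out with a cell viability assay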
# Description: SANGER: Inhibition of human NCI-H727 cell growth in a cell viability assay.
# [38] = test system: KOSC-2; type: functional, cell-based, Homo sapiens; conditions: Homo sapiens, KOSC-2;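 further: growth inhibition of KOSC-2 cells, read out by a cell viability assay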
# Description: SANGER: Inhibition of human KOSC-2 cell growth in a cell viability assay.
# [39] = test system: HEL; type: functional, cell-based, Homo sapiens; conditions: Homo sapiens, HEL;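 further: growth inhibition of HEL cells, read out with a cell viability assay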
# Description: SANGER: Inhibition of human HEL cell growth in a cell viability assay.
# [40] = test system: COLO-829; type: functional, cell-based, Homo sapiens; conditions: Homo sapiens, COLO-829
# Description: SANGER: Inhibition of human COLO-829 cell growth in a cell viability assay.
# [41] = test system: C32; type: functional, cell-based, Homo sapiens; conditions: Homo sapiens, C32;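 further: cell viability assay, with IC50 reflecting inhibition of C32 cell growth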
# Description: SANGER: Inhibition of human C32 cell growth in a cell viability assay.
# [42] = test system: A704; type: functional, cell-based, Homo sapiens; conditions: Homo sapiens, A704;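 further: growth inhibition of human A704 cells, read out with a cell viability assay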
# Description: SANGER: Inhibition of human A704 cell growth in a cell viability assay.
# [43] = test system: DU-4475; type: functional, cell-based; conditions: Homo sapiens
# Description: SANGER: Inhibition of human DU-4475 cell growth in a cell viability assay.
# [44] = test system: CHL-1; type: functional, cell-based, Homo sapiens; conditions: Homo sapiens, CHL-1;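 further: cell growth inhibition, read out with a cell viability assay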
# Description: SANGER: Inhibition of human CHL-1 cell growth in a cell viability assay.
# [45] = test system: LAN-6; type: functional, cell-based, Homo sapiens; conditions: Homo sapiens, LAN-6;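 further: growth inhibition of LAN-6 cells, determined with a cell viability assay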
# Description: SANGER: Inhibition of human LAN-6 cell growth in a cell viability assay.
# [46] = test system: ONS-76; type: functional, cell-based, Homo sapiens; conditions: Homo sapiens, ONS-76;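 further: growth inhibition of human ONS-76 cells, read out with a cell viability assay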
# Description: SANGER: Inhibition of human ONS-76 cell growth in a cell viability assay.
# [47] = test system: D-392MG; type: functional, cell-based, Homo sapiens; conditions: Homo sapiens, D-392MG
# [48] = test system: SCC-25; type: functional, cell-based, Homo sapiens; conditions: Homo sapiens, SCC-25;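 further: growth inhibition of SCC-25 cells, measured with a cell viability assay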
# Description: SANGER: Inhibition of human SCC-25 cell growth in a cell viability assay.
# [49] = test system: BB65-RCC; type: functional, cell-based, Homo sapiens; conditions: Homo sapiens, BB65-RCC;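 further: growth inhibition of the cell line, measured with a cell viability assay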
# Description: SANGER: Inhibition of human BB65-RCC cell growth in a cell viability assay.
# [50] = test system: NCI-H1650; type: functional, cell-based, Homo sapiens; conditions: Homo sapiens, NCI-H1650;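 further: growth inhibition of human NCI-H1650 cells measured by a cell viability assay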
# Description: SANGER: Inhibition of human NCI-H1650 cell growth in a cell viability assay.
# [51] = test system: SK-OV-3; type: functional, cell-based, Homo sapiens; conditions: Homo sapiens, SK-OV-3;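 further: growth inhibition of SK-OV-3 human cells, read out with a cell viability assay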
# Description: SANGER: Inhibition of human SK-OV-3 cell growth in a cell viability assay.
structure (smiles),measurement,setting,value
O=C(c1cc(Cc2n[nH]c(=O)c3ccccc23)ccc1F)N1CCN(C(=O)C2CC2)CC1 [OLAPARIB],IC50,[1],> 5000 nM
same,IC50,[2],> 5000 nM
same,IC50,[3],> 5000 nM
same,IC50,[4],> 5000 nM
same,IC50,[5],> 5000 nM
same,IC50,[6],> 5000 nM
same,IC50,[7],> 5000 nM
same,IC50,[8],> 5000 nM
same,IC50,[9],> 5000 nM
same,IC50,[10],> 5000 nM
same,IC50,[11],> 5000 nM
same,IC50,[12],> 5000 nM
same,IC50,[13],1110 nM
same,IC50,[14],> 5000 nM
same,IC50,[15],> 5000 nM
same,IC50,[16],> 5000 nM
same,IC50,[17],> 5000 nM
same,IC50,[18],> 5000 nM
same,IC50,[19],> 5000 nM
same,IC50,[20],> 5000 nM
same,IC50,[21],> 5000 nM
same,IC50,[22],> 5000 nM
same,IC50,[23],> 5000 nM
same,IC50,[24],> 5000 nM
same,IC50,[25],> 5000 nM
same,IC50,[26],> 5000 nM
same,IC50,[27],> 5000 nM
same,IC50,[28],> 5000 nM
same,IC50,[29],> 5000 nM
same,IC50,[30],> 5000 nM
same,IC50,[31],> 5000 nM
same,IC50,[32],> 5000 nM
same,IC50,[33],1620 nM
same,IC50,[34],> 5000 nM
same,IC50,[35],> 5000 nM
same,IC50,[36],> 5000 nM
same,IC50,[37],> 5000 nM
same,IC50,[38],> 5000 nM
same,IC50,[39],> 5000 nM
same,IC50,[40],> 5000 nM
same,IC50,[41],> 5000 nM
same,IC50,[42],> 5000 nM
same,IC50,[43],> 5000 nM
same,IC50,[44],> 5000 nM
same,IC50,[45],> 5000 nM
same,IC50,[46],> 5000 nM
same,IC50,[47],> 5000 nM
same,IC50,[48],> 5000 nM
same,IC50,[49],> 5000 nM
same,IC50,[50],> 5000 nM
COc1ccc(-c2ccc3c(N4CCOC[C@@H]4C)nc(N4CCOC[C@@H]4C)nc3n2)cc1CO [AZD-8055],IC50,[1],> 2000 nM
same,IC50,[2],> 2000 nM
same,IC50,[3],1190 nM
same,IC50,[4],1480 nM
same,IC50,[5],> 2000 nM
same,IC50,[6],1440 nM
same,IC50,[7],323 nM
same,IC50,[8],858 nM
same,IC50,[9],> 2000 nM
same,IC50,[10],1130 nM
same,IC50,[12],> 2000 nM
same,IC50,[13],555 nM
same,IC50,[51],672 nM
same,IC50,[14],1520 nM
same,IC50,[15],1170 nM
same,IC50,[16],> 2000 nM
same,IC50,[17],799 nM
same,IC50,[18],1750 nM
same,IC50,[19],532 nM
same,IC50,[20],588 nM
same,IC50,[21],> 2000 nM
same,IC50,[22],1010 nM
same,IC50,[23],604 nM
same,IC50,[24],1140 nM
same,IC50,[25],1100 nM
same,IC50,[26],> 2000 nM
same,IC50,[27],> 2000 nM
same,IC50,[28],> 2000 nM
same,IC50,[29],1280 nM
same,IC50,[30],1570 nM
same,IC50,[31],> 2000 nM
same,IC50,[32],> 2000 nM
same,IC50,[33],835 nM
same,IC50,[34],> 2000 nM
same,IC50,[35],> 2000 nM
same,IC50,[36],1330 nM
same,IC50,[37],> 2000 nM
same,IC50,[38],1080 nM
same,IC50,[39],1940 nM
same,IC50,[40],> 2000 nM
same,IC50,[41],725 nM
same,IC50,[42],818 nM
same,IC50,[43],80.5 nM
same,IC50,[44],327 nM
same,IC50,[45],> 2000 nM
same,IC50,[46],> 2000 nM
same,IC50,[47],> 2000 nM
same,IC50,[48],1580 nM
same,IC50,[49],308 nM
same,IC50,[50],> 2000 nM
CN(Cc1cnc2nc(N)nc(N)c2n1)c1ccc(C(=O)N[C@@H](CCC(=O)O)C(=O)O)cc1 [METHOTREXATE],IC50,[1],> 200 nM
same,IC50,[2],45.3 nM
same,IC50,[3],126 nM
same,IC50,[4],> 200 nM
same,IC50,[5],> 200 nM
same,IC50,[6],> 200 nM
same,IC50,[7],7.51 nM
same,IC50,[8],20 nM
same,IC50,[9],> 200 nM
same,IC50,[10],> 200 nM
same,IC50,[11],> 200 nM
same,IC50,[12],> 200 nM
same,IC50,[13],16.4 nM
same,IC50,[14],> 200 nM
same,IC50,[15],> 200 nM
same,IC50,[16],> 200 nM
same,IC50,[17],> 200 nM
same,IC50,[18],> 200 nM
same,IC50,[19],19.4 nM
same,IC50,[20],43.1 nM
same,IC50,[21],> 200 nM
same,IC50,[22],> 200 nM
same,IC50,[23],24.8 nM
same,IC50,[24],> 200 nM
same,IC50,[25],> 200 nM
same,IC50,[26],> 200 nM
same,IC50,[27],> 200 nM
same,IC50,[28],> 200 nM
same,IC50,[29],> 200 nM
same,IC50,[30],> 200 nM
same,IC50,[31],> 200 nM
same,IC50,[32],> 200 nM
same,IC50,[33],107 nM
same,IC50,[34],> 200 nM
same,IC50,[35],> 200 nM
same,IC50,[36],> 200 nM
same,IC50,[37],> 200 nM
same,IC50,[38],> 200 nM
same,IC50,[39],11.5 nM
same,IC50,[40],> 200 nM
same,IC50,[41],> 200 nM
same,IC50,[42],> 200 nM
same,IC50,[44],> 200 nM
same,IC50,[45],> 200 nM
same,IC50,[46],63.8 nM
same,IC50,[47],158 nM
same,IC50,[48],> 200 nM
same,IC50,[49],> 200 nM
same,IC50,[50],> 200 nM
